Assay results published in the supplement of paper PMC10307832.

Key:
Assay in all cases: relative viability (nuclei count vs DMSO), 5 days (fraction); higher = more cells survive
[1] = compound: COc1cc2nc(N3CCCN(C)CC3)nc(NC3CCN(Cc4ccccc4)CC3)c2cc1OC + Cc1nc(Nc2ncc(C(=O)Nc3c(C)cccc3Cl)s2)cc(N2CCN(CCO)CC2)n1 [Dasatinib] (partner 0.075 µM)
Method in brief: (§1)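 Lung cancer cell lines in 1536-well plates were dosed by pin tool the day after seeding, either with one drug alone or with a fixed anchor-drug dose plus five library-drug doses (not always all listed) in √10 steps. After 5 days, cells were fixed and their nuclei stained in one step (final 0.05% Triton X-100, 1% formaldehyde, 1 ug/ml Hoechst), then counted on 4× images. Relative viability is the nuclei count in treated wells divided by that in vehicle wells. Values are medians of duplicate plates.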

AZD6482 + Trametinib = compound: Cc1cc([C@@H](C)Nc2ccccc2C(=O)O)c2nc(N3CCOCC3)cc(=O)n2c1 [AZD6482] + CC(=O)Nc1cccc(-n2c(=O)n(C3CC3)c(=O)c3c(Nc4ccc(I)cc4F)n(C)c(=O)c(C)c32)c1 [Trametinib] (partner 0.02 µM)
Method in brief: as §1

AZD6482 + Foretinib = compound: Cc1cc([C@@H](C)Nc2ccccc2C(=O)O)c2nc(N3CCOCC3)cc(=O)n2c1 [AZD6482] + COc1cc2c(Oc3ccc(NC(=O)C4(C(=O)Nc5ccc(F)cc5)CC4)cc3F)ccnc2cc1OCCCN1CCOCC1 [Foretinib] (partner 0.25 µM)
Method in brief: as §1

AZD6482 + Pictilisib = compound: Cc1cc([C@@H](C)Nc2ccccc2C(=O)O)c2nc(N3CCOCC3)cc(=O)n2c1 [AZD6482] + CS(=O)(=O)N1CCN(Cc2cc3nc(-c4cccc5[nH]ncc45)nc(N4CCOCC4)c3s2)CC1 [Pictilisib] (partner 1 µM)
Method in brief: as §1

| Cell Line | relative viability ([1]; first compound 0.2 µM) | relative viability ([1]; first compound 0.6325 µM) | relative viability ([1]; first compound 2 µM) | relative viability ([1]; first compound 6.325 µM) | relative viability (AZD6482 + Trametinib; first compound 0.08 µM) | relative viability (AZD6482 + Trametinib; first compound 0.253 µM) | relative viability (AZD6482 + Trametinib; first compound 0.8 µM) | relative viability (AZD6482 + Trametinib; first compound 2.53 µM) | relative viability (AZD6482 + Trametinib; first compound 8 µM) | relative viability (AZD6482 + Foretinib; first compound 0.08 µM) | relative viability (AZD6482 + Foretinib; first compound 0.253 µM) | relative viability (AZD6482 + Foretinib; first compound 0.8 µM) | relative viability (AZD6482 + Foretinib; first compound 2.53 µM) | relative viability (AZD6482 + Foretinib; first compound 8 µM) | relative viability (AZD6482 + Pictilisib; first compound 0.08 µM) | relative viability (AZD6482 + Pictilisib; first compound 0.253 µM) | relative viability (AZD6482 + Pictilisib; first compound 0.8 µM) | relative viability (AZD6482 + Pictilisib; first compound 2.53 µM) | relative viability (AZD6482 + Pictilisib; first compound 8 µM) |
| --- | --- | --- | --- | --- | --- | --- | --- | --- | --- | --- | --- | --- | --- | --- | --- | --- | --- | --- | --- |
| COR-L23 | 0.57 | 0.476 | 0.559 | 0.519 | 0.553 | 0.598 | 0.652 | 0.403 | 0.521 | 0.888 | 1.04 | 1.03 | 0.81 | 0.799 | 0.424 | 0.642 | 0.765 | 0.534 | 0.748 |
| ABC-1 | 0.531 | 0.525 | 0.568 | 0.581 | – | – | – | – | – | 0.868 | 1.21 | 1.03 | 0.86 | 0.719 | 0.789 | 0.623 | 0.773 | 0.686 | 0.736 |
| NCI-H522 | 0.963 | 1.15 | 1.02 | 0.92 | 0.872 | 0.711 | 0.841 | 0.549 | 0.566 | – | – | – | – | – | – | – | – | – | – |
| NCI-H838 | 0.316 | 0.319 | 0.33 | 0.237 | 0.419 | 0.494 | 0.451 | 0.316 | 0.336 | 0.855 | 0.964 | 0.873 | 0.581 | 0.469 | 0.461 | 0.464 | 0.442 | 0.339 | 0.487 |
| SW 900 | 0.411 | 0.578 | 0.654 | 0.498 | 0.851 | 0.591 | 0.703 | 0.43 | 0.568 | 0.751 | 0.753 | 0.773 | – | 0.792 | – | – | – | – | – |
| A549 | – | – | – | – | – | – | – | – | – | 0.898 | 0.842 | 0.979 | 0.596 | 0.743 | 0.522 | 0.472 | 0.523 | 0.264 | 0.386 |
| A-427 | 0.64 | 0.707 | 0.749 | 0.651 | 0.628 | 0.783 | 0.691 | 0.548 | 0.612 | 0.959 | 0.937 | 1.13 | – | 1.05 | 0.655 | 0.697 | 0.735 | 0.601 | 0.682 |
| NCI-H1792 | 0.89 | 0.781 | 0.824 | 0.816 | 0.322 | 0.377 | 0.41 | 0.251 | 0.283 | – | – | – | – | – | 0.224 | 0.237 | 0.288 | 0.191 | 0.213 |
| LCLC-97TM1 | 0.857 | 0.701 | 0.877 | 0.915 | 0.2 | 0.202 | 0.171 | – | 0.154 | 0.854 | 0.778 | 0.823 | 0.595 | 0.596 | 0.246 | 0.175 | 0.245 | 0.176 | 0.146 |
| NCI-H1703 | – | – | – | – | – | – | – | – | – | 0.266 | 0.414 | 0.322 | 0.259 | 0.259 | 0.245 | 0.239 | 0.233 | 0.204 | 0.191 |
| LCLC-103H | 0.394 | 0.344 | 0.532 | 0.479 | 0.661 | 0.607 | 0.649 | 0.547 | 0.496 | 0.603 | 0.55 | 0.56 | 0.379 | 0.33 | 0.6 | 0.627 | 0.636 | 0.439 | 0.591 |
| PC-3 [JPC-3] | 0.954 | 0.908 | 1.08 | 1 | 0.556 | 0.694 | 0.65 | 0.564 | 0.55 | 0.928 | 1.09 | 1.09 | 0.877 | 0.875 | 0.601 | 0.743 | 0.739 | 0.652 | 0.681 |
| BEN | 0.384 | 0.389 | 0.36 | 0.351 | 0.898 | 0.947 | 1.02 | 0.866 | 0.817 | 0.675 | 0.62 | 0.701 | 0.558 | 0.739 | 0.607 | 0.506 | 0.655 | 0.434 | 0.557 |
| NCI-H1666 | 0.819 | 0.847 | 0.788 | 0.718 | 0.766 | 0.944 | 0.808 | 0.81 | 0.835 | 0.914 | 0.868 | 1.03 | 0.785 | 0.989 | 0.437 | 0.547 | 0.558 | 0.437 | 0.405 |
| LC-2-ad | 0.493 | 0.618 | 0.804 | 0.65 | 0.864 | 0.886 | 0.942 | 0.798 | 0.614 | 0.902 | 0.939 | 0.878 | 0.714 | 0.787 | 0.36 | 0.426 | 0.504 | 0.236 | 0.567 |
| SK-LU-1 | 0.21 | 0.159 | 0.206 | 0.119 | – | 0.418 | 0.495 | 0.399 | 0.453 | – | 0.735 | 0.688 | 0.555 | 0.584 | – | 0.535 | 0.622 | 0.461 | 0.448 |
| Calu-6 | – | – | – | – | – | – | – | – | – | 0.789 | 0.815 | 0.9 | 0.644 | 0.765 | 0.823 | 0.85 | 0.846 | 0.673 | 0.937 |
| NCI-H1648 | – | – | – | – | 0.483 | 0.434 | 0.491 | – | 0.365 | – | – | – | – | – | – | – | – | – | – |
| EBC-1 | – | – | – | – | – | – | – | – | – | 0.102 | 0.104 | 0.124 | 0.0931 | 0.115 | 0.314 | 0.295 | 0.209 | 0.197 | 0.292 |
| NCI-H1299 | – | – | – | – | – | – | – | – | – | 1.06 | 1.13 | 1.31 | 1.11 | 1.12 | 0.615 | 0.684 | 0.742 | 0.394 | 0.678 |
| NCI-H2342 | 0.34 | 0.295 | 0.311 | 0.312 | 0.682 | 0.685 | 0.799 | 0.561 | 0.622 | 0.927 | 0.891 | 0.987 | 0.614 | 0.653 | – | – | – | – | – |
| IA-LM | – | – | – | – | – | – | – | – | – | 1.18 | 1.2 | 1.52 | – | 1.09 | 0.342 | 0.247 | 0.338 | – | 0.366 |
